Results from patent US11136625B2, “Gene expression signatures predictive of subject response to a multi-kinase inhibitor and methods of using the same” (Crown Bioscience, Inc. (Taicang), priority 2013, dated 2021).

Columns and labels:
[1] = system: HCC-PDX model LIM1025 (code 002); experiment: Sorafenib antitumor activity in HCC HuPrime PDX model LIM1025; format: in vivo, Balb/c nude mice; details: 50 mg/kg p.o. qd × 14, P value <0.001
Excerpt: (§1) Patient tumor samples and engraftment in immunocompromised mice. […] (<10).
(§2) Evaluation of antitumor activity.

[2] = system: HCC-PDX model LIM752 (code 003); experiment: Sorafenib antitumor activity in HCC HuPrime PDX model LIM752; format: in vivo, Balb/c nude mice; details: 50 mg/kg p.o. qd × 14, P value <0.001
Excerpt: as §1, §2

[3] = system: HCC-PDX model LIM1081 (code 004); experiment: Sorafenib antitumor activity in HCC HuPrime PDX model LIM1081; format: in vivo, Balb/c nude mice; details: 50 mg/kg p.o. qd × 13, P value 0.015
Excerpt: as §1, §2

[4] = system: HCC-PDX model LIM1098 (code 005); experiment: Sorafenib antitumor activity in HCC HuPrime PDX model LIM1098; format: in vivo, Balb/c nude mice; details: 50 mg/kg qd × 14 p.o., P value 0.008
Excerpt: as §1, §2

[5] = system: HCC-PDX model LIM612 (code 006); experiment: Sorafenib antitumor activity in HCC HuPrime PDX model LIM612; format: in vivo, Balb/c nude mice; details: 50 mg/kg p.o. Qd × 22, P value 0.001
Excerpt: as §1, §2

[6] = system: HCC-PDX model LIM1035 (code 007); experiment: Sorafenib antitumor activity in HCC HuPrime PDX model LIM1035; format: in vivo, Balb/c nude mice; details: 50 mg/kg p.o. qd × 14, P value 0.005
Excerpt: as §1, §2

[7] = system: HCC-PDX model LIM1005 (code 008); experiment: Sorafenib antitumor activity in HCC HuPrime PDX model LIM1005; format: in vivo, Balb/c nude mice; details: 50 mg/kg p.o. qd × 14, P value 0.015
Excerpt: as §1, §2

[8] = system: HCC-PDX model LIM574 (code 009); experiment: Sorafenib antitumor activity in HCC HuPrime PDX model LIM574; format: in vivo, Balb/c nude mice; details: 50 mg/kg p.o. qd × 14, P value 0.002
Excerpt: as §1, §2

[9] = system: HCC-PDX model LIM941 (code 010); experiment: Sorafenib antitumor activity in HCC HuPrime PDX model LIM941; format: in vivo, Balb/c nude mice; details: 50 mg/kg p.o. 5 days on/2 days off, P value <0.001
Excerpt: as §1, §2

[10] = system: HCC-PDX model LIM1074 (code 011); experiment: Sorafenib antitumor activity in HCC HuPrime PDX model LIM1074; format: in vivo, Balb/c nude mice; details: 50 mg/kg p.o. qd × 13, P value 0.032
Excerpt: as §1, §2

[11] = system: HCC-PDX model LIM801 (code 012); details: 50 mg/kg p.o. 5 days on/2 days off, P value 0.001
Excerpt: (§3) We were interested in identifying models that would respond or not respond to Sorafenib. To this end, we tested a cohort of randomly selected 21 HCC HuPrime by treating them with Sorafenib.
(§4) Patient tumor samples and engraftment in immunocompromised mice. Freshly and surgically removed tumor tissues were obtained from the patients diagnosed as HCC through collaboration with the Beijing Keluoen Translational Medicine Institute and Hebei Medical University Fourth Hospital with approval by the Institutional Review Boards of Hebei Medical University Fourth Hospital and the informed consents from patients. The engraftments of patient tumor fragments into immunocompromised mice subcutaneously have been broadly described by others. Briefly, the tumors were sliced into 3×3×3 mm3 fragments and inoculated subcutaneously on the flank of mice (Balb/c nude, 6-8 wks old, female, Beijing HFK Bioscience Co. Ltd., Beijing, China). The tumor growth was monitored twice weekly by using a caliper. The established tumor models from these patient samples, called passage 0 or P0, were serially re-engrafted to maintain tumors, these subsequent passages were called P1, 2, 3 . . . (<10). […]

[12] = system: HCC-PDX model LIM1054 (code 013); experiment: Sorafenib antitumor activity in HCC HuPrime PDX model LIM1054; format: in vivo, Balb/c nude mice; details: 50 mg/kg p.o. qd × 14, P value 0.045
Excerpt: as §1, §2

[13] = system: HCC-PDX model LIM1097 (code 014); experiment: Sorafenib antitumor activity in HCC HuPrime PDX model LIM1097; format: in vivo, Balb/c nude mice; details: 50 mg/kg p.o. qd × 14, P value 0.046
Excerpt: as §1, §2

[14] = system: HCC-PDX model LIM1057 (code 015); experiment: Sorafenib antitumor activity in HCC HuPrime PDX model LIM1057; format: in vivo, Balb/c nude mice; details: p.o. 50 mg/kg, qd × 14, P value 0.003
Excerpt: as §1, §2

[15] = system: HCC-PDX model LIM1068 (code 016); experiment: Sorafenib antitumor activity in HCC HuPrime PDX model LIM1068; format: in vivo, Balb/c nude mice; details: 50 mg/kg p.o. qd × 13, P value 0.024
Excerpt: as §1, §2

[16] = system: HCC-PDX model LIF1069 (code 017); experiment: Sorafenib antitumor activity in HCC HuPrime PDX model LIF1069; format: in vivo, Balb/c nude mice; details: 50 mg/kg p.o. qd × 14, P value 0.024
Excerpt: as §1, §2

[17] = system: HCC-PDX model LIM1078 (code 018); experiment: Sorafenib antitumor activity in HCC HuPrime PDX model LIM1078; format: in vivo, Balb/c nude mice; details: 50 mg/kg p.o. qd × 13, P value 0.055
Excerpt: as §1, §2

[18] = system: HCC-PDX model LIM1088 (code 019); experiment: Sorafenib antitumor activity in HCC HuPrime PDX model LIM1088; format: in vivo, Balb/c nude mice; details: 50 mg/kg p.o. qd × 13, P value 0.182
Excerpt: as §1, §2

[19] = system: HCC-PDX model LIMsh050 (code 020); experiment: Sorafenib antitumor activity in HCC HuPrime PDX model LIMsh050; format: in vivo, Balb/c nude mice
Excerpt: as §3, §4

[20] = system: HCC-PDX model LIM334 (code 021); experiment: Sorafenib antitumor activity in HCC HuPrime PDX model LIM334; format: in vivo, Balb/c nude mice
Excerpt: as §1, §2

[21] = system: cohort of 21 hepatocellular carcinoma (HCC) patient derived xenografts (PDXs); experiment: Clinical trial-like study of Sorafenib in a cohort of 21 HCC HuPrime PDXs; format: in vivo, Balb/c nude mice; details: 13 out of 21 PDXs; daily oral Sorafenib 50 mg/kg
Excerpt: as §1, §2
Patient derived xenografts (PDXs) are considered experimental models mimicking patient tumors, or “patient avatars”. We performed a clinical-like trial (phase II-like) using a cohort of 21 hepatocellular carcinoma (HCC) patient derived xenografts (PDXs), also called patient avatar trial, for testing their response to multi-kinase inhibitor Sorafenib. […] Gene expression profiles of these PDXs were analyzed to reveal the mRNA expression signatures that may be predictive of the response to Sorafenib. This signature can be potentially used to develop companion diagnostics to stratify patent treatment, or individualized treatment.

[22] = system: advanced hepatocellular carcinoma (HCC); details: background statement; cited from earlier work

CNC(=O)c1cc(Oc2ccc(NC(=O)Nc3ccc(Cl)c(C(F)(F)F)c3)cc2)ccn1 [Sorafenib]
ΔT/ΔC (day14-day15) [1]: 0.01
ΔT/ΔC (day14-day15) [2]: 0.10
ΔT/ΔC (day14-day15) [3]: 0.14
ΔT/ΔC (day14-day15) [4]: 0.14
ΔT/ΔC (day14-day15) [5]: 0.15
ΔT/ΔC (day14-day15) [6]: 0.16
ΔT/ΔC (day14-day15) [7]: 0.21
ΔT/ΔC (day14-day15) [8]: 0.21
ΔT/ΔC (day14-day15) [9]: 0.23
ΔT/ΔC (day14-day15) [10]: 0.35
ΔT/ΔC (day14-day15) [11]: 0.37
ΔT/ΔC (day14-day15) [12]: 0.38
ΔT/ΔC (day14-day15) [13]: 0.41
ΔT/ΔC (day14-day15) [14]: 0.43
ΔT/ΔC (day14-day15) [15]: 0.47
ΔT/ΔC (day14-day15) [16]: 0.47
ΔT/ΔC (day14-day15) [17]: 0.48
ΔT/ΔC (day14-day15) [18]: 0.54
model response to Sorafenib (in words) ([19]; model L10050, daily oral 50 mg/kg): quite or partially resistant
ΔT/ΔC (day14-day15) ([19]; model LIMsh050, 50 mg/kg p.o. qd × 14, P value 0.134): 0.78
model response to Sorafenib (in words) ([20]; model L10334, daily oral 50 mg/kg): quite or partially resistant
ΔT/ΔC (day14-day15) ([20]; model LIM334, 50 mg/kg p.o. 5 days on/2 days off, P value 0.659): 1.13
PDXs that achieved effective tumor growth inhibition with % ΔT/ΔC<40% (p<0.05) [21]: 62%
increase survival for HCC patients [22]: 3 months
